Data set [1] relates to WT mouse platelets. The data set is described as follows: Platelet aggregation, WT mouse platelets. It counts as cell-based. Here is the method: FIG. 9(A-C) is an exemplary embodiment of EN460 inhibiting thrombin-induced aggregation of mouse and human platelets in accordance with the present disclosure. (A) Human (FIG. 9A), WT (FIG. 9B), and Ero1α-null (FIG. 9C) platelets were pretreated with EN460, an ERO1α inhibitor, at 1, 3, or 10 μM, and treated with 0.025 U/ml thrombin to induce platelet aggregation. The data represent the mean±SD (n=3). P values determined by ANOVA and Dunnett's test (FIG. 9(A-B)) or Student's t-test (FIG. 9C).
FIG. 10(A-E) is an exemplary embodiment of 15E9 not affecting platelet activation and aggregation in accordance with the present disclosure. […] P values determined by unpaired Student's t-test (vs. mIgG1).
FIG. 18(A-R) is an exemplary embodiment of novel small-molecule inhibitors recapitulating the defect in Ero1α (endoplasmic reticulum oxidoreductase 1a)-null platelets in accordance with the present disclosure. […] After incubation with a different concentration of B12-5, the specific interaction between B12-5 and ERO1α was measured by subtracting the nonspecific binding. The KD value was calculated from the Kon and Koff values. […] P values determined by ANOVA and Dunnett test (FIG. 18(B-E), FIG. 18(1-L), and FIG. 18(O-R) [for B12-5]) or Student t test (FIG. 18M, FIG. 18N, and FIG. 18(O-R) [for BAPTA (1,2-bis(o-aminophenoxy)ethane-N,N,N′,N′-tetraacetic acid)]).

A short description of data set [2]: Water solubility. In kind it is physicochemical.
Data set [3] has as its target T1, MAO-A (monoamine oxidase A) (Homo sapiens, UniProt P21397).
T1 sequence (P21397 1-527): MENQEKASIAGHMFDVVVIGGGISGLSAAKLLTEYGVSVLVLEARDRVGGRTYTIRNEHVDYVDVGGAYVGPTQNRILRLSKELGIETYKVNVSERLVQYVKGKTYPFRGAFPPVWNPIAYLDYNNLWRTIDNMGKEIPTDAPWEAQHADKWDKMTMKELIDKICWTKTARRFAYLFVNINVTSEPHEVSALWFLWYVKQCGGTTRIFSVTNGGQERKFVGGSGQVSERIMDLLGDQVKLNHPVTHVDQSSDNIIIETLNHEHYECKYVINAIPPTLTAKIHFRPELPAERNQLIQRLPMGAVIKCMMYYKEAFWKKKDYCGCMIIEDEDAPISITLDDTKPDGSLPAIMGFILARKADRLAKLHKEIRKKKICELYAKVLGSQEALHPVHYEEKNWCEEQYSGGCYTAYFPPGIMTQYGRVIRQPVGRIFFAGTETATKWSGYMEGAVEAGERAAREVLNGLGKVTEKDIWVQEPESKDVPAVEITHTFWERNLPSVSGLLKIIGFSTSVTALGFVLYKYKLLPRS
Conditions: from studies; cited from earlier work.

Results on 2 compounds are retold here after patent US20240366624A1, “METHODS AND COMPOSITIONS FOR TREATING THROMBOTIC DISEASE” (Washington University, priority 2023, published 2024).

SMILES strings stand for the structures.

For `O=C(CSc1nc(O)cc(O)n1)N1c2ccccc2Sc2ccccc21` [B12-5], in data set [1] (10 μM), the “thrombin- or CRP-induced WT platelet aggregation” value is on record as “significantly mitigated”. The water solubility entry in data set [2] was “poor”.
In the case of `O=C(O)c1cc(N2N=C(C(F)(F)F)/C(=C/c3ccc(-c4ccccc4)o3)C2=O)ccc1Cl` [EN460], the thrombin-induced aggregation entry in data set [1] (3 to 10 μM, mouse platelets) is given as “abrogated”. Besides, the IC50 in data set [3] is 7.9 µM.
